# Read-outs that look alike come from different tables or passages of the source.
# Key:
# [1] = logP by HPLC on reversed-phase columns (C 18), EEC Directive 79/831 Annex V.A8; format: physicochemical; conditions: for logP(HCOOH): pH 2.7; for logP(neutral): pH 7.8; for chromatographic logP: reversed-phase C18 HPLC column
# Experimental: Calibration is carried out using unbranched alkan-2-ones (having from 3 to 16 carbon atoms) with known log P values (the log P values are determined by the retention times using linear interpolation between two successive alkanones).
# [2] = test system: greenhouse red spider mite (Tetranychus urticae); assay: Tetranychus test, OP-resistant (TETRUR spray treatment); format: in vivo; conditions: application rate 500 g/ha, after 6 days
# Experimental: (§1) After 6 days, the effect in % is determined.
# [3] = test system: greenhouse red spider mite (Tetranychus urticae); assay: Tetranychus urticae spray test, OP-resistant (TETRUR), bean leaf disks; format: in vivo; conditions: for pest or weed control at 500 g/ha: Tetranychus urticae, foliar, 144 h, read-out: efficacy (spider mites killed)
# Experimental: as §1
# [4] = test system: cattle ticks (Boophilus microplus); assay: Boophilus microplus injection test (BOOPMI Inj); format: in vivo; conditions: Rhipicephalus microplus, 168 h, read-out: efficacy (laying of fertile eggs)
# Experimental: Solvent: dimethyl sulfoxide
# 1 μl of the active compound solution is injected into the abdomen of 5 engorged adult female cattle ticks (Boophilus microplus). The animals are transferred into dishes and kept in a climate-controlled room.
# The activity is assessed after 7 days by laying of fertile eggs. Eggs whose fertility is not visible from the outside are stored in a climate-controlled cabinet until the larvae hatch after about 42 days. An efficacy of 100% means that none of the ticks has laid any fertile eggs; 0% means that all eggs are fertile.
# [5] = test system: larvae of the mustard beetle (Phaedon cochleariae); assay: Phaedon cochleariae spray test (PHAECO); conditions: Phaedon cochleariae, 168 h, read-out: effect (beetle larvae killed)
# [6] = application rate 500 g/ha, after 6 days
# [7] = application rate 20 μg/animal, injection, after 7 days
# [8] = pH 2.7, [a] LC-MS, acidic range, pH 2.7, 0.1% aqueous formic acid/acetonitrile, read-out: logP(HCOOH)
# [9] = pH 7.8, [b] LC-MS, neutral range, pH 7.8, 0.001 molar aqueous ammonium bicarbonate/acetonitrile, read-out: logP(neutral)
Structure (SMILES),"pest or weed control at 0.02 mg [4, 7]","pest or weed control at 500 g/ha [3, 6]",pest or weed control at 500 g/ha [5],further results
Cc1cc(F)c([S+]([O-])CC(F)(F)F)cc1N=C(N(C)C)C(F)(F)F (centres unmarked) [Ib-15],,,,"logP(HCOOH) [1]: 2.17; logP(neutral) [1]: 2.14; efficacy (spider mites killed) [2]: 100%; efficacy (spider mites killed) [3, 6]: 100%"
N/C(=N/c1cc([S@+]([O-])CC(F)(F)F)c(Cl)cc1Cl)C(F)(F)F [Ib-17],100%,100%,100%,
Cc1cc(F)c([S+]([O-])CC(F)(F)F)cc1/N=C(/N)C(F)(F)F (centres unmarked) [Ib-13],,,,"efficacy (spider mites killed) [2]: 100%; efficacy (spider mites killed) [3, 6]: 100%"
CN(C)/C(=N/c1cc([S+]([O-])CC(F)(F)F)c(Br)cc1F)C(F)(F)F (centres unmarked) [Ib-59],100%,100%,,
CNC(=Nc1cc(SCC(F)(F)F)c(C)cc1C)C(F)(F)F [Ia-12],,,,"logP(HCOOH) [1]: 3.95; logP(neutral) [1]: 4.01; efficacy (spider mites killed) [2]: 100%; efficacy (spider mites killed) [3, 6]: 100%"
CN/C(=N\c1cc(SCC(F)(F)F)c(C)cc1F)c1cccc(Cl)c1 [Ia-44],100%,100%,,
"Cc1cc(F)c(/N=C(\c2ccc(Cl)s2)N(C)C)cc1SCC(F)(F)F [Ia-149, 5-Chloro-N′-{2-fluoro-4-methyl-5-[(2,2,2-trifluoroethyl)sulfanyl]phenyl}-N,N-dimethylthiophene-2-carboximidamide]",,90%,100%,"chromatographic logP [1, 8]: 2.11; chromatographic logP [1, 9]: 4.89"
Cc1cc(Cl)c([S+]([O-])CC(F)(F)F)cc1/N=C(\N)C(F)(F)F (centres unmarked) [Ib-85],100%,100%,,
Cc1cc(F)c(/N=C(/NC2CC2)C(F)(F)F)cc1[S+]([O-])CC(F)(F)F (centres unmarked) [Ib-08],,,,"logP(HCOOH) [1]: 2.68; logP(neutral) [1]: 2.67; efficacy (spider mites killed) [2]: 100%; efficacy (spider mites killed) [3, 6]: 100%"
Cc1cc(F)c(SCC(F)(F)F)cc1N=C(N)C(F)(F)F [Ia-17],,,,"logP(HCOOH) [1]: 3.16; logP(neutral) [1]: 3.14; efficacy (spider mites killed) [2]: 80%; efficacy (spider mites killed) [3, 6]: 80%"
Cc1cc(F)c(/N=C(/Nc2ccc(C(F)(F)F)cc2)C(F)(F)F)cc1SCC(F)(F)F [Ia-45],,80%,100%,"chromatographic logP [1, 8]: 4.82; chromatographic logP [1, 9]: 4.71"
Cc1cc(F)c(/N=C(/Nc2ccc(Cl)cc2)C(F)(F)F)cc1SCC(F)(F)F [Ia-31],,100%,100%,"chromatographic logP [1, 8]: 4.73; chromatographic logP [1, 9]: 4.67"
Cc1cc(Cl)c(/N=C(\N)C(F)(F)C(F)(F)F)cc1[S+]([O-])CC(F)(F)F (centres unmarked) [Ib-35],100%,100%,,
"Cc1cc(F)c(/N=C(\c2cccn2C)N(C)C)cc1SCC(F)(F)F [Ia-162, N′-{2-Fluoro-4-methyl-5-[(2,2,2-trifluoroethyl)sulfanyl]phenyl}-N,N,1-trimethyl-1H-pyrrole-2-carboximidamide]",,100%,100%,"chromatographic logP [1, 8]: 1.67; chromatographic logP [1, 9]: 4.11"
Cc1cc(C)c(SCC(F)(F)F)cc1/N=C(\N)c1cccnc1 [Ia-66],100%,100%,,
Cc1cc(F)c(/N=C(/c2ccc(Cl)cc2)N(C)C)cc1SCC(F)(F)F [Ia-50],100%,100%,,
"N/C(=N/c1ccc(Cl)c([S+]([O-])CC(F)(F)F)c1)C(F)(F)F (centres unmarked) [Ib-108, N′-{4-Chloro-3-[(2,2,2-trifluoroethyl)sulfinyl]phenyl}-2,2,2-trifluoroethanimidamide]",100%,100%,83%,"chromatographic logP [1, 8]: 2.25; chromatographic logP [1, 9]: 2.21"
CN/C(=N\c1cc([S+]([O-])CC(F)(F)F)c(Cl)cc1Cl)c1ccc(Cl)nc1 (centres unmarked) [Ib-89],80%,100%,,
Cc1cc(F)c(/N=C2\CCCN2C)cc1[S+]([O-])CC(F)(F)F (centres unmarked) [Ib-20],100%,100%,100%,
"Cc1cc(F)c(/N=C(\N)C2(F)CC2)cc1[S+]([O-])CC(F)(F)F (centres unmarked) [Ib-19, 1-Fluoro-N′-{2-fluoro-4-methyl-5-[(2,2,2-trifluoroethyl)sulfinyl]phenyl}cyclopropanecarboximidamide]",,,,pest or weed control at 0.02 mg [4]: 100%; pest or weed control at 500 g/ha [3]: 100%
CN/C(=N\c1cc(SCC(F)(F)F)c(C)cc1F)c1ccncc1 [Ia-80],100%,100%,,
Cc1cc(F)c(/N=C(\N)c2ccc(Cl)nc2)cc1[S+]([O-])CC(F)(F)F (centres unmarked) [Ib-48],100%,100%,,
